Experimental data published in publication PMC8509773, “3-Pyridinylidene Derivatives of Chemically Modified Lupane and Ursane Triterpenes as Promising Anticancer Agents by Targeting Apoptosis” (International Journal of Molecular Sciences, 2021).

Assays:
[1] = test system: NCI-60 cancer cell line panel; design: method as in PMID 33970717; conditions: earlier study; read-out: GI50 range against NCI-60; cited from earlier work
[2] = design: method as in PMID 11527742, doi:10.1007/s00044-018-2189-6, PMID 32956968; conditions: literature data; cited from earlier work
chorioallantoic membrane = assay: HET-CAM irritation assay; conditions: in vivo
Description: HET-CAM assay was used in order to assess the toxicity of compounds 6 and 7 (Figure 16); the procedure is a low-cost, unique model in biomedical research that allows the testing of the irritation potency of chemical compounds while simultaneously avoiding in vivo experiments. […] The Luepke scale was used to establish the irritation score: 0–0.9 indicates non-irritant, 1–4.9 indicates weakly irritant, 5–8.9 indicates moderately irritant, and 9–21 means strongly irritant.
Compounds 6 and 7 were also evaluated in terms of biocompatibility on mucosal tissues by using the in vivo Hen’s Egg Chorioallantoic Membrane Test (HET-CAM assay). The assay assesses a potential irritant effect on the vascular plexus of the chorioallantoic membrane. The HET-CAM method was carried out following ICCVAM recommendations published in November 2016 in Appendix G and adapted to our laboratory conditions. Thus, 300 µL of control or test solution, respectively, was applied on CAM and the alterations induced at the CAM level were monitored by means of stereomicroscopy (Discovery 8 Stereomicroscope, Zeiss), registering significant images (Axio CAM 105 color, Zeiss), before the application and after 5 min contact with the samples. All images were processed using Zeiss ZEN software, Gimp 2.8 and ImageJ software. Negative control was represented by distilled water and solvent control DMSO 0.5%, while the positive control by the sodium lauryl sulphate (SLS) 0.5% in distillate water. The test substances were tested in concentrations of 1 µM. The observation time of the produced reactions was 5 min (300 s) and the time, at which the occurrence of a particular reaction took place was recorded in seconds. Finally, the following reactions were monitored: hemorrhage—H (blood vessel bleeding), vascular lysis —L (disintegration of blood vessels), and coagulation —C (intra or extra- vascular protein denaturizing). A variety of analysis methods may be used to assess irritancy potential of test substances. One analysis method that has been used extensively used is an irritation score (IS) calculated according to the following formula: IS=5×301−SecH/300+[…]/300+9×301−SecC/300 where H = hemorrhage; L = vessel lysis; C = coagulation; Hemorrhage time (Sec H) = onset of hemorrhage reactions on CAM (in sec); Lysis time (Sec L) = onset of vessel lysis on CAM (in sec); Coagulation time (Sec C) = onset of coagulation formation on CAM (in sec). The formula comprises a factor indicating the impact of the observed effect on vascular damage, e.g., coagulation has the highest impact expressed by the multiplication factor 9. The IS values range on a scale between 0 and 21.

Compound	GI50 [1] [nM]	other results
2,30-bis-(3-pyridinylidene)-platanic acid	1000 to 2000	–
CC(=O)[C@@H]1CC[C@]2(C(=O)O)CC[C@]3(C)[C@H](CC[C@@H]4[C@@]5(C)CC[C@H](O)C(C)(C)[C@@H]5CC[C@]43C)[C@@H]12 [platanic acid]	–	GI50 [2]: > 50000 nM
CCCCCCCCCCCCOS(=O)(=O)[O-].[Na+] [SLS 0.5%, sodium laurylsulphate, reference compound]	–	Type of Effect (chorioallantoic membrane): Strong irritant
3-pyridinylidene-messagenin	1000 to 2000	–
